# From ChEMBL document CHEMBL1201862, “PubChem BioAssay data set” (2004)
#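 Five compound concentrations were applied to cells in 96-well plates for 48 hours; endpoints were derived by simple linear interpolation of the resulting dose-response curve. GI50: concentration for 50% inhibition of growth.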 Calls of active or inactive are those of the source. No stated cut-off is given here; in the data, active = GI50 up to about 1.1 µM and inactive = higher.
# Columns and labels:
# Assay in all cases: growth of human tumour cells (NCI), 48 h
# RPMI-8226 = tested on: RPMI-8226
# UACC-257 = tested on: UACC-257
# MDA-N = tested on: MDA-N
# HCT-116 = tested on: HCT-116
# NCI-H23 = tested on: NCI-H23
# UO-31 = tested on: UO-31
# OVCAR-3 = tested on: OVCAR-3
# NCI/ADR-RES = tested on: NCI/ADR-RES
# EKVX = tested on: EKVX
# DU-145 = tested on: DU-145
# RXF 393 = tested on: RXF 393
# Malme-3M = tested on: Malme-3M
# NCI-H226 = tested on: NCI-H226
# SN12C = tested on: SN12C
# MCF7 = tested on: MCF7
# CAKI-1 = tested on: CAKI-1
# IGROV-1 = tested on: IGROV-1
# SW-620 = tested on: SW-620
# SF-268 = tested on: SF-268
# Hs-578T = tested on: Hs-578T
Compound,GI50 (RPMI-8226),GI50 (UACC-257),GI50 (MDA-N),GI50 (HCT-116),GI50 (NCI-H23),GI50 (UO-31),GI50 (OVCAR-3),GI50 (NCI/ADR-RES),GI50 (EKVX),GI50 (DU-145),GI50 (RXF 393),GI50 (Malme-3M),GI50 (NCI-H226),GI50 (SN12C),GI50 (MCF7),GI50 (CAKI-1),GI50 (IGROV-1),GI50 (SW-620),GI50 (SF-268),GI50 (Hs-578T)
C=C1[C@@H](OC(C)=O)[C@H]2[C@@H](OC(C)=O)[C@@](C)(OC(C)=O)C[C@]2(OC(C)=O)C(=O)[C@@H](C)/C=C/C(C)(C)C(=O)C[C@H]1OC(C)=O,> 100 µM (inactive),> 100 µM (inactive),> 100 µM (inactive),> 100 µM (inactive),> 100 µM (inactive),> 100 µM (inactive),47.2 µM (inactive),88.1 µM (inactive),83.9 µM (inactive),> 100 µM (inactive),> 100 µM (inactive),> 100 µM (inactive),> 100 µM (inactive),> 100 µM (inactive),> 100 µM (inactive),> 100 µM (inactive),> 100 µM (inactive),–,–,–
CCN(CC)CCOc1ccc(N2C(=O)c3cccc4cc([N+](=O)[O-])cc(c34)C2=O)cc1,–,13.1 µM (inactive),14.6 µM (inactive),3.88 µM (inactive),11.6 µM (inactive),9.12 µM (inactive),–,16.8 µM (inactive),16.3 µM (inactive),10.8 µM (inactive),–,13.8 µM (inactive),3.79 µM (inactive),17.4 µM (inactive),3.56 µM (inactive),11.5 µM (inactive),7.08 µM (inactive),7.48 µM (inactive),10.9 µM (inactive),14.7 µM (inactive)
COC(=O)[C@@H](NS(=O)(=O)CC12CCC(CC1)C2(C)C)C(C)(C)C,–,> 100 µM (inactive),> 100 µM (inactive),> 100 µM (inactive),> 100 µM (inactive),> 100 µM (inactive),> 100 µM (inactive),> 100 µM (inactive),> 100 µM (inactive),> 100 µM (inactive),44.4 µM (inactive),> 100 µM (inactive),> 100 µM (inactive),> 100 µM (inactive),> 100 µM (inactive),> 100 µM (inactive),> 100 µM (inactive),> 100 µM (inactive),> 100 µM (inactive),> 100 µM (inactive)
COc1ccc(C(=O)N2CCN(c3ccc4c(c3)OCC(=O)N4)CC2)cc1OC,> 100 µM (inactive),> 100 µM (inactive),> 100 µM (inactive),> 100 µM (inactive),> 100 µM (inactive),> 100 µM (inactive),> 100 µM (inactive),> 100 µM (inactive),> 100 µM (inactive),> 100 µM (inactive),–,> 100 µM (inactive),> 100 µM (inactive),> 100 µM (inactive),> 100 µM (inactive),–,> 100 µM (inactive),> 100 µM (inactive),> 100 µM (inactive),> 100 µM (inactive)
CCOC(=O)N/N=C(/N)c1cccc(Br)c1,–,> 100 µM (inactive),> 100 µM (inactive),> 100 µM (inactive),> 100 µM (inactive),56.1 µM (inactive),> 100 µM (inactive),> 100 µM (inactive),83 µM (inactive),> 100 µM (inactive),> 100 µM (inactive),> 100 µM (inactive),–,> 100 µM (inactive),> 100 µM (inactive),> 100 µM (inactive),> 100 µM (inactive),–,> 100 µM (inactive),> 100 µM (inactive)
O=S(=O)(O)c1ccc(O)c(/N=N/c2c(O)ccc3ccccc23)c1,> 100 µM (inactive),> 100 µM (inactive),> 100 µM (inactive),> 100 µM (inactive),> 100 µM (inactive),> 100 µM (inactive),34.6 µM (inactive),> 100 µM (inactive),> 100 µM (inactive),> 100 µM (inactive),> 100 µM (inactive),–,> 100 µM (inactive),> 100 µM (inactive),–,> 100 µM (inactive),> 100 µM (inactive),> 100 µM (inactive),> 100 µM (inactive),> 100 µM (inactive)
Cc1cc(-c2nc3ccccc3s2)ccc1NC(=O)[C@@H](N)CCCCN,–,18.4 µM (inactive),5.04 µM (inactive),6.22 µM (inactive),6.7 µM (inactive),6.71 µM (inactive),12.9 µM (inactive),15.8 µM (inactive),12.2 µM (inactive),12.5 µM (inactive),3.89 µM (inactive),18.2 µM (inactive),2.24 µM (inactive),16.8 µM (inactive),< 0.0301 µM (active),7.5 µM (inactive),1.69 µM (inactive),12.7 µM (inactive),6.07 µM (inactive),18.5 µM (inactive)
O=C1[C@@H]2C[C@@H](O)CN2C(=O)c2ccccc2N1CCCO,> 100 µM (inactive),> 100 µM (inactive),> 100 µM (inactive),> 100 µM (inactive),–,> 100 µM (inactive),> 100 µM (inactive),> 100 µM (inactive),> 100 µM (inactive),> 100 µM (inactive),–,–,> 100 µM (inactive),> 100 µM (inactive),> 100 µM (inactive),–,> 100 µM (inactive),> 100 µM (inactive),> 100 µM (inactive),> 100 µM (inactive)
CC1=NC(=Cc2cccc(Cl)c2)C(=O)N1n1c(-c2ccccc2)nc2ccccc2c1=O,30.2 µM (inactive),28.6 µM (inactive),30.4 µM (inactive),36.5 µM (inactive),25.6 µM (inactive),39 µM (inactive),–,–,21.2 µM (inactive),38.9 µM (inactive),–,26.9 µM (inactive),90.4 µM (inactive),40.4 µM (inactive),20.4 µM (inactive),22.8 µM (inactive),23.2 µM (inactive),55 µM (inactive),65.3 µM (inactive),24.5 µM (inactive)
CN(C)C(=O)Oc1ccc(C(=S)Nc2ccccc2)cc1Br,22.2 µM (inactive),24.7 µM (inactive),21.7 µM (inactive),34 µM (inactive),22.9 µM (inactive),33.5 µM (inactive),30.1 µM (inactive),20.4 µM (inactive),32.5 µM (inactive),54.5 µM (inactive),–,33.6 µM (inactive),–,–,25.8 µM (inactive),63.7 µM (inactive),21 µM (inactive),37.4 µM (inactive),6.9 µM (inactive),8.59 µM (inactive)
O=C(O)c1oc(C(=O)O)c(C(=O)O)c1C(=O)O,> 100 µM (inactive),> 100 µM (inactive),> 100 µM (inactive),> 100 µM (inactive),> 100 µM (inactive),> 100 µM (inactive),> 100 µM (inactive),> 100 µM (inactive),> 100 µM (inactive),> 100 µM (inactive),> 100 µM (inactive),> 100 µM (inactive),58.9 µM (inactive),> 100 µM (inactive),–,> 100 µM (inactive),> 100 µM (inactive),> 100 µM (inactive),> 100 µM (inactive),> 100 µM (inactive)
Nc1c([N+](=O)[O-])cc2c3c(cccc13)CC2,55.7 µM (inactive),> 100 µM (inactive),> 100 µM (inactive),39.1 µM (inactive),55 µM (inactive),42.5 µM (inactive),> 100 µM (inactive),40.8 µM (inactive),26.7 µM (inactive),46 µM (inactive),23.1 µM (inactive),–,> 100 µM (inactive),62.8 µM (inactive),–,> 100 µM (inactive),> 100 µM (inactive),82.2 µM (inactive),83.6 µM (inactive),> 100 µM (inactive)
COc1ccc(-c2c(C#N)c(O)n(C3OC(CO)C(O)C(O)C3O)c(=S)c2C#N)cc1 (stereo not given),> 100 µM (inactive),> 100 µM (inactive),> 100 µM (inactive),–,> 100 µM (inactive),> 100 µM (inactive),> 100 µM (inactive),> 100 µM (inactive),–,> 100 µM (inactive),> 100 µM (inactive),> 100 µM (inactive),> 100 µM (inactive),> 100 µM (inactive),> 100 µM (inactive),> 100 µM (inactive),> 100 µM (inactive),> 100 µM (inactive),> 100 µM (inactive),–
O=C(O)CCCc1nc2c(n1-c1ccccc1)C(=O)c1ccccc1C2=O,40.7 µM (inactive),33.2 µM (inactive),43.5 µM (inactive),49.1 µM (inactive),65.8 µM (inactive),> 100 µM (inactive),33.6 µM (inactive),> 100 µM (inactive),62.8 µM (inactive),> 100 µM (inactive),–,21.6 µM (inactive),–,52.5 µM (inactive),32.6 µM (inactive),> 100 µM (inactive),> 100 µM (inactive),> 100 µM (inactive),38.1 µM (inactive),> 100 µM (inactive)
Cn1c(=O)c2c(nc3n2CC(=O)N3CCCCl)n(C)c1=O,> 100 µM (inactive),> 100 µM (inactive),> 100 µM (inactive),> 100 µM (inactive),> 100 µM (inactive),> 100 µM (inactive),> 100 µM (inactive),> 100 µM (inactive),> 100 µM (inactive),> 100 µM (inactive),–,–,> 100 µM (inactive),> 100 µM (inactive),> 100 µM (inactive),> 100 µM (inactive),> 100 µM (inactive),> 100 µM (inactive),> 100 µM (inactive),> 100 µM (inactive)
